Assay results: US20260347338A1, “PYRIMIDINE/PYRIDINE DERIVATIVES OR SALTS THEREOF AND PHARMACEUTICAL COMPOSITIONS COMPRISING THE SAME” (YUHAN CORPORATION, priority 2023, published 2026)
Counter-ions that a name gives are not always drawn.

biological target: T1, human recombinant HPK1 (Homo sapiens, UniProt Q92918); experiment: Inhibitory activity against human recombinant HPK1 (TR-FRET); type: biochemical; settings: ULight-p70S6K peptide, ATP at Km, room temperature, 1 hour, 0.32 to 1000 nM compound
T1 construct: purchased BPS Bioscience
T1 sequence (Q92918 whole entry): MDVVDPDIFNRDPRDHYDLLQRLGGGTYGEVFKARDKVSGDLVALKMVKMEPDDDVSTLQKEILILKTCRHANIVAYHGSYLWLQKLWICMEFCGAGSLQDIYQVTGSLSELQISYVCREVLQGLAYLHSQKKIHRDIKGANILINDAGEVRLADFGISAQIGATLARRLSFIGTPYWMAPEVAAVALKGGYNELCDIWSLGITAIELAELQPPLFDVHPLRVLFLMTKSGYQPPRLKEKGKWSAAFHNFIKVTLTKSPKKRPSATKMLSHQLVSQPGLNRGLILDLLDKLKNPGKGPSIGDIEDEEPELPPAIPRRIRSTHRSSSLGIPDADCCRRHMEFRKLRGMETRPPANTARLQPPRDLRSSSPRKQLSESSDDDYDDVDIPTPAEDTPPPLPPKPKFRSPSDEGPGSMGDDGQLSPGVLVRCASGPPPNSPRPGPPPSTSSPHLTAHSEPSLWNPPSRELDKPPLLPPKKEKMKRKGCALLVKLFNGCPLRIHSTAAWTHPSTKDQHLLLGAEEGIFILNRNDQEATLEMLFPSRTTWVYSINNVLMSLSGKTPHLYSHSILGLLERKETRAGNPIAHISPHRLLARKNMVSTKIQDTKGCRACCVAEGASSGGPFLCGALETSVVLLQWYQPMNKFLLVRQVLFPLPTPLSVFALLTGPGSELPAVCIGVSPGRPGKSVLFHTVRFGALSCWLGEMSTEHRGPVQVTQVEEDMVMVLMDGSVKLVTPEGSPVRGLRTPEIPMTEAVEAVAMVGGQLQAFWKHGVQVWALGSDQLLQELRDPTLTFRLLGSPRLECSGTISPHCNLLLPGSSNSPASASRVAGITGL
How it was run: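 IC50 classes A–D use 10, 50 and 100 nM cut-offs, derived from TR-FRET signal inhibition relative to DMSO controls. Human recombinant HPK1 phosphorylated ULight-p70S6K peptide at Km ATP for 1 h, room temperature, pH 7.4; test range 0.32–1000 nM final, detection with Eu-labelled antibody after EDTA quench.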

IC50, ≤ 10 nM:
COc1cccc(F)c1-c1nccc(Nc2cc(N3CC[C@H](N)[C@H](F)C3)c(-c3cnn(C(F)F)c3)cn2)n1 [Example 307, N-(4-((3R,4S)-4-amino-3-fluoropiperidin-1-yl)-5-(1-(difluoromethyl)-1H-pyrazol-4-yl)pyridin-2-yl)-2-(2-fluoro-6-methoxyphenyl)pyrimidin-4-amine hydrochloride]
COc1cccc(F)c1-c1nccc(Nc2cc(N3CC[C@@H](N)[C@@H](F)C3)c(-c3cnn(C(F)F)c3)cn2)n1 [Example 308, N-(4-((3S,4R)-4-amino-3-fluoropiperidin-1-yl)-5-(1-(difluoromethyl)-1H-pyrazol-4-yl)pyridin-2-yl)-2-(2-fluoro-6-methoxyphenyl)pyrimidin-4-amine hydrochloride]
COc1cc(F)cc(F)c1-c1nc(Nc2cc(N3CCC[C@H](N)C3)c(-c3cnn(C4CCOCC4)c3)cn2)ccc1C#N [Example 309, 6-((4-((S)-3-aminopiperidin-1-yl)-5-(1-(tetrahydro-2H-pyran-4-yl)-1H-pyrazol-4-yl)pyridin-2-yl)amino)-2-(2,4-difluoro-6-methoxyphenyl)nicotinonitrile hydrochloride]
COc1cc(F)cc(F)c1-c1nc(Nc2cc(N3CCC[C@H](N)C3)c(-c3cnn(C(F)F)c3)cn2)ccc1C#N [Example 310, 6-((4-((S)-3-aminopiperidin-1-yl)-5-(1-(difluoromethyl)-1H-pyrazol-4-yl)pyridin-2-yl)amino)-2-(2,4-difluoro-6-methoxyphenyl)nicotinonitrile hydrochloride]
COc1cc(F)cc(F)c1-c1nccc(Nc2cc(N3CCC[C@H](N)C3)c(C#CC3(C)CCOCC3)cn2)n1 [Example 311, (S)-N-(4-(3-aminopiperidin-1-yl)-5-((4-methyltetrahydro-2H-pyran-4-yl)ethynyl)pyridin-2-yl)-2-(2,4-difluoro-6-methoxyphenyl)pyrimidin-4-amine]
COc1cc(F)cc(F)c1-c1nccc(Nc2cc(N3CCC[C@H](N)C3)c(C#CC3(O)CCOCC3)cn2)n1 [Example 312, (S)-4-((4-(3-aminopiperidin-1-yl)-6-((2-(2,4-difluoro-6-methoxyphenyl)pyrimidin-4-yl)amino)pyridin-3-yl)ethynyl)tetrahydro-2H-pyran-4-ol]
COc1cc(F)cc(F)c1-c1nccc(Nc2cc(N3CCC[C@H](N)C3)c(C#CC(C)(C)O)cn2)n1 [Example 313, (S)-4-(4-(3-aminopiperidin-1-yl)-6-((2-(2,4-difluoro-6-methoxyphenyl)pyrimidin-4-yl)amino)pyridin-3-yl)-2-methylbut-3-yn-2-ol]
COc1cc(F)cc(F)c1-c1nccc(Nc2cc(N3CCC[C@H](N)C3)c(C#CCCO)cn2)n1 [Example 314, (S)-4-(4-(3-aminopiperidin-1-yl)-6-((2-(2,4-difluoro-6-methoxyphenyl)pyrimidin-4-yl)amino)pyridin-3-yl)but-3-yn-1-ol]
COc1cccc(F)c1-c1nc(Nc2cc(N3CCC[C@H](N)C3)c(-c3cnn(C(F)F)c3)cn2)ccc1S(C)(=O)=O [Example 315, 4-((S)-3-aminopiperidin-1-yl)-5-(1-(difluoromethyl)-1H-pyrazol-4-yl)-N-(6-(2-fluoro-6-methoxyphenyl)-5-(methylsulfonyl)pyridin-2-yl)pyridin-2-amine hydrochloride]
COc1cccc(F)c1-c1nc(Nc2cc(N3CCC[C@H](O)C3)c(-c3cnn(CC(F)(F)F)c3)cn2)ccc1C#N [Example 316, 2-(2-fluoro-6-methoxyphenyl)-6-((4-((S)-3-hydroxypiperidin-1-yl)-5-(1-(2,2,2-trifluoroethyl)-1H-pyrazol-4-yl)pyridin-2-yl)amino)nicotinonitrile]
COc1cc(F)cc(F)c1-c1nc(Nc2cc(N3CCC[C@H](O)C3)c(-c3cnn(CC(F)(F)F)c3)cn2)ccc1C#N [Example 317, 2-(2,4-difluoro-6-methoxyphenyl)-6-((4-((S)-3-hydroxypiperidin-1-yl)-5-(1-(2,2,2-trifluoroethyl)-1H-pyrazol-4-yl)pyridin-2-yl)amino)nicotinonitrile]
COc1cccc(F)c1-c1nc(Nc2cc(N3CCC[C@H](N)C3)c(-c3cnn(CC(F)(F)F)c3)cn2)ccc1C#N [Example 318, 6-((4-((S)-3-aminopiperidin-1-yl)-5-(1-(2,2,2-trifluoroethyl)-1H-pyrazol-4-yl)pyridin-2-yl)amino)-2-(2-fluoro-6-methoxyphenyl)nicotinonitrile hydrochloride]
COc1cccc(F)c1-c1nc(Nc2cc(N3CCC[C@H](N)C3)c(-c3cnn(CC(C)(C)O)c3)cn2)ccc1C#N [Example 319, 6-((4-((S)-3-aminopiperidin-1-yl)-5-(1-(2-hydroxy-2-methylpropyl)-1H-pyrazol-4-yl)pyridin-2-yl)amino)-2-(2-fluoro-6-methoxyphenyl)nicotinonitrile hydrochloride]
COc1cc(F)cc(F)c1-c1nc(Nc2cc(N3CCC[C@H](N)C3)c(-c3cnn(CC(F)(F)F)c3)cn2)ccc1C#N [Example 320, 6-((4-((S)-3-aminopiperidin-1-yl)-5-(1-(2,2,2-trifluoroethyl)-1H-pyrazol-4-yl)pyridin-2-yl)amino)-2-(2,4-difluoro-6-methoxyphenyl)nicotinonitrile hydrochloride]
COc1cccc(F)c1-c1nc(Nc2cc(N3CC[C@@H](F)[C@H](N)C3)c(-c3cnn(C(F)F)c3)cn2)ccc1C#N [Example 321, 6-((4-((3R,4R)-3-amino-4-fluoropiperidin-1-yl)-5-(1-(difluoromethyl)-1H-pyrazol-4-yl)pyridin-2-yl)amino)-2-(2-fluoro-6-methoxyphenyl)nicotinonitrile hydrochloride]
COc1cccc(F)c1-c1nc(Nc2cc(N3CC[C@H](F)[C@H](N)C3)c(-c3cnn(C(F)F)c3)cn2)ccc1C#N [Example 322, 6-((4-((3R,4S)-3-amino-4-fluoropiperidin-1-yl)-5-(1-(difluoromethyl)-1H-pyrazol-4-yl)pyridin-2-yl)amino)-2-(2-fluoro-6-methoxyphenyl)nicotinonitrile hydrochloride]
COc1cccc(F)c1-c1nc(Nc2cc(N3CCC[C@H](N)C3)c(-c3ccc(N4CCOCC4)nc3)cn2)ccc1C#N [Example 323, 6-((4-((S)-3-aminopiperidin-1-yl)-6′-morpholino-[3,3′-bipyridin]-6-yl)amino)-2-(2-fluoro-6-methoxyphenyl)nicotinonitrile hydrochloride]
COc1cc(F)cc(F)c1-c1nccc(Nc2cc(N3C[C@@H](N)C[C@@H](F)C3)c(-c3cnn(CC(F)(F)F)c3)cn2)n1 [Example 324, N-(4-((3S,5R)-3-amino-5-fluoropiperidin-1-yl)-5-(2-(2,2,2-trifluoroethyl)-1H-pyrazol-4-yl)pyridin-2-yl)-2-(2,4-difluoro-6-methoxyphenyl)pyrimidin-4-amine]
COc1cccc(F)c1-c1nc(Nc2cc(N3CCC[C@H](O)C3)c(-c3cnn(C4CCN(C)CC4)c3)cn2)ccc1C#N [Example 325, 2-(2-fluoro-6-methoxyphenyl)-6-((4-((S)-3-hydroxypiperidin-1-yl)-5-(1-(1-methylpiperidin-4-yl)-1H-pyrazol-4-yl)pyridin-2-yl)amino)nicotinonitrile]
COc1cccc(F)c1-c1nc(Nc2cc(N3CC[C@@H](N)[C@H](O)C3)c(-c3cnn(C(F)F)c3)cn2)ccc1C#N [Example 326, 6-((4-((3R,4R)-4-amino-3-hydroxypiperidin-1-yl)-5-(1-(difluoromethyl)-1H-pyrazol-4-yl)pyridin-2-yl)amino)-2-(2-fluoro-6-methoxyphenyl)nicotinonitrile]
CCn1cc(-c2cnc(Nc3ccc(C#N)c(-c4c(F)cccc4OC)n3)cc2N2CCC[C@H](N)C2)cn1 [Example 327, 6-((4-((S)-3-aminopiperidin-1-yl)-5-(1-ethyl-1H-pyrazol-4-yl)pyridin-2-yl)amino)-2-(2-fluoro-6-methoxyphenyl)nicotinonitrile hydrochloride]
COc1cccc(F)c1-c1nc(Nc2cc(N3CCC[C@H](N)C3)c(-c3cnn(C(C)C)c3)cn2)ccc1C#N [Example 328, 6-((4-((S)-3-aminopiperidin-1-yl)-5-(1-isopropyl-1H-pyrazol-4-yl)pyridin-2-yl)amino)-2-(2-fluoro-6-methoxyphenyl)nicotinonitrile hydrochloride]
COc1cccc(F)c1-c1nc(Nc2cc(N3CCC[C@H](N)C3)c(-c3cnn(C4CC4)c3)cn2)ccc1C#N [Example 329, 6-((4-((S)-3-aminopiperidin-1-yl)-5-(1-cyclopropyl-1H-pyrazol-4-yl)pyridin-2-yl)amino)-2-(2-fluoro-6-methoxyphenyl)nicotinonitrile hydrochloride]
COc1cccc(F)c1-c1nc(Nc2cc(N3CCC[C@H](N)C3)c(-c3cnn(CC4CC4)c3)cn2)ccc1C#N [Example 330, 6-((4-((S)-3-aminopiperidin-1-yl)-5-(1-(cyclopropylmethyl)-1H-pyrazol-4-yl)pyridin-2-yl)amino)-2-(2-fluoro-6-methoxyphenyl)nicotinonitrile hydrochloride]
COc1cccc(F)c1-c1nc(Nc2cc(N3CC[C@@H](F)[C@H](O)C3)c(-c3cnn(C(F)F)c3)cn2)ccc1C#N [Example 331, 6-((5-(1-(difluoromethyl)-1H-pyrazol-4-yl)-4-((3R,4R)-4-fluoro-3-hydroxypiperidin-1-yl)pyridin-2-yl)amino)-2-(2-fluoro-6-methoxyphenyl)nicotinonitrile]
